This is an account of results in PMC6600671, “Design and Synthesis of Indoleamine 2,3-Dioxygenase 1 Inhibitors and Evaluation of Their Use as Anti-Tumor Agents” (Molecules, 2019).

One may read the inhibition as how much of the control response was suppressed. A word on the IC50: it is the concentration that gives 50% inhibition.

One test addresses rhIDO1 (Homo sapiens, UniProt P14902). In words: Enzyme-based IDO1 activity assay (kynurenine absorbance at 492 nm). The class given is biochemical. The following applies: for inhibition at 50 µM: shown when calculated IC50 >50 μM, read-out: IDO inhibition rate (%) at 50 μM; for IC50: rhIDO1 0.05 μM, 37 °C, 45 min, read-out: IDO IC50. The method, then:
(§1) The compounds on IDO1 or TDO activity were determined as follows: A standard reaction mixture (100 μL) containing 100 mM potassium phosphate buffer (pH 6.5), 40 mM ascorbic acid (neutralized with NaOH), 200 μg/mL catalase, 20 μM methylene blue and 0.05 μM rhIDO1 or rhTDO was added to the solution containing the substrate L-tryptophan and the test sample at a determined concentration. […] The yellow pigment derived from kynurenine was measured at 492 nm using a SYNERGY-H1 microplate reader (Biotek Instruments, Inc., Winooski, VT, USA). IC50 was analyzed using the GraphPad Prism 8.0 software (GraphPad Software, San Diego, CA, USA).

The next test has as its target rhTDO (Homo sapiens, UniProt P48775). The test is described as follows: Enzyme-based TDO activity assay (kynurenine absorbance at 492 nm). It is filed as biochemical. As to conditions: at 50 μM; for inhibition at 50 µM: shown when calculated IC50 >50 μM, read-out: TDO inhibition rate (%) at 50 μM; for TDO IC50 or %: dash symbol. The method, then: as §1

Chain of rhIDO1 (P14902 whole entry): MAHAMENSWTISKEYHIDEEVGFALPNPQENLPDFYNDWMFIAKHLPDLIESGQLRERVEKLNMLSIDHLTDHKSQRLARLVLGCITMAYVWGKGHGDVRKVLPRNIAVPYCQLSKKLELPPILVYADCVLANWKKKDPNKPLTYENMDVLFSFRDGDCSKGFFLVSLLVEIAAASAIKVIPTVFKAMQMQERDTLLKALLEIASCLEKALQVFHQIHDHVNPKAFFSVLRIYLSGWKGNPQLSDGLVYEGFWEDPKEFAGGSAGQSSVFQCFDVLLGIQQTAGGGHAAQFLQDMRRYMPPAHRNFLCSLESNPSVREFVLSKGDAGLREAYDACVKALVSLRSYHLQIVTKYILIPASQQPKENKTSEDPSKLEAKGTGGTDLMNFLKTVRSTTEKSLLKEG
Chain of rhTDO (P48775 whole entry): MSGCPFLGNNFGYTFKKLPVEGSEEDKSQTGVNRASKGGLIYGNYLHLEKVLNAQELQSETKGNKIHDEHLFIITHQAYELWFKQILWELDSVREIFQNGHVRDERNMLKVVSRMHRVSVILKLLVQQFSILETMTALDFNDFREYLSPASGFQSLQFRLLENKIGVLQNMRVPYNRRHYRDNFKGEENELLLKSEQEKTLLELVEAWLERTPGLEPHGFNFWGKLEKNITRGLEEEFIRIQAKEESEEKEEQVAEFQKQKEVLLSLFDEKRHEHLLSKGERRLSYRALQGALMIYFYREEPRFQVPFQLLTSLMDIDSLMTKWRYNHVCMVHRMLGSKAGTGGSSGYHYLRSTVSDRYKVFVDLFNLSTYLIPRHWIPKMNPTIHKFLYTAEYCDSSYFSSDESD

Take `O=C1CC(Cc2c[nH]c3ccccc23)C(=O)N1` (racemic) [DX-02-02, (R/S) 3-((1H-indol-3-yl)methyl)pyrrolidine-2,5-dione]: the results for the inhibition at 50 µM at rhIDO1 (at 50 μM) and at rhTDO were 7.2% and 2.3%, respectively.

Regarding `O=C1CC(c2c(/C=N/O)[nH]c3ccc(F)cc23)C(=O)N1` (racemic) [DX-02-04, (R/S) (E)-3-(2,5-dioxopyrrolidin-3-yl)-5-fluoro-1H-indole-2-carbaldehyde oxime], the inhibition at 50 µM at rhIDO1 (at 50 μM) was 40.2%; at rhTDO it was 14.5%.

As for `O=C1CC(c2c(CNO)[nH]c3ccc(F)cc23)C(=O)N1` (racemic) [DX-02-05, (R/S) 3-(5-fluoro-2-((hydroxyamino)methyl)-1H-indol-3-yl)pyrrolidine-2,5-dione], the inhibition at 50 µM at rhIDO1 (at 50 μM) is 12.5%; on rhTDO, 16.3%.

`O=C(O)c1cc2ccccc2[nH]1` [DX-01-01]: the values for the inhibition at 50 µM at rhIDO1 (at 50 μM) and on rhTDO were 9.7% and 8.9%, respectively.

`O=[N+]([O-])c1c[nH]c2ccccc12` [DX-01-08]: the inhibition at 50 µM is 10.9% on rhIDO1 (at 50 μM) and 3.2% on rhTDO.

Turning to `N#Cc1c[nH]c2ccccc12` [DX-01-09], the inhibition at 50 µM at rhIDO1 (at 50 μM) is 2.6%; at rhTDO, 7.8%.

Take `N#CCc1c[nH]c2ccccc12` [DX-01-10]: the inhibition at 50 µM was 2.1% at rhIDO1 (at 50 μM) and 8.9% on rhTDO.

As for `COc1ccc2[nH]cc(CCNC(C)=O)c2c1` [DX-01-11], the “IDO IC50 or %” value at rhIDO1 (at 50 μM, dash symbol) is recorded as “-”. The inhibition at 50 µM at rhTDO is 3.8%.

As for `O=C(NO)c1c[nH]c2ccccc12` [DX-01-12], the figures for the inhibition at 50 µM on rhIDO1 (at 50 μM) and at rhTDO were 47.1% and 33.9%, respectively.

As for `ONCc1c[nH]c2ccccc12` [DX-01-14, N-((1H-indol-3-yl)methyl)hydroxylamine], on rhIDO1, the “IDO1 inhibition, in words” value is listed as “moderate” and the IC50 was 11.1 µM. Also, the inhibition at 50 µM at rhTDO is 38.2%.

Turning to `Cc1ccccc1-c1ccc2[nH]cc(CNO)c2c1` [DX-01-15, N-((5-(o-tolyl)-1H-indol-3-yl)methyl)hydroxylamine], on rhIDO1, the “IDO1 inhibition, in words” value is recorded as “moderate” and the IC50 turned out to be 21.3 µM. Further, the inhibition at 50 µM at rhTDO was 35.4%.

Consider `ONCc1cc2ccccc2[nH]1` [DX-01-17, N-((1H-indol-2-yl)methyl)hydroxylamine], for which, on rhIDO1, the “IDO1 inhibition, in words” value is recorded as “moderate” and the IC50 amounted to 17.7 µM. Besides, the inhibition at 50 µM at rhTDO was 42.2%.

With `O=c1[nH]c2ccccc2o1` [DX-01-18], the inhibition at 50 µM at rhIDO1 (at 50 μM) was 5.4%. In addition, the “TDO IC50 or %” value at rhTDO (Table 1) is “-”.

In the case of `N#CCc1nc2ccccc2o1` [DX-01-20], the inhibition at 50 µM at rhIDO1 (at 50 μM) is 15.7%; on rhTDO, 3.8%.

As to `N#CCc1nc2ccccc2[nH]1` [DX-01-22], the inhibition at 50 µM was 13.2% on rhIDO1 (at 50 μM) and 4.5% at rhTDO.

Regarding `O=C1C/C(=C\c2c[nH]c3ccccc23)C(=O)N1` [DX-02-01, (E)-3-((1H-indol-3-yl)methylene)pyrrolidine-2,5-dione], the inhibition at 50 µM at rhIDO1 (at 50 μM) is 6.3%. At rhTDO (Table 2), the “TDO IC50 or %” value is “-”.

In the case of `O/N=C/c1ccccc1-c1c[nH]cn1` [DX-03-02, (E) 2-(1H-imidazol-4-yl)benzaldehyde Oxime], the results for the inhibition at 50 µM at rhIDO1 (at 50 μM) and on rhTDO were 24.2% and 13.9%, respectively.

In the case of `O/N=C/c1cc(Cl)ccc1-c1c[nH]cn1` [DX-03-05, (E) 5-chloro-2-(1H-imidazol-4-yl)benzaldehyde Oxime], the inhibition at 50 µM on rhIDO1 (at 50 μM) was 31.3%; on rhTDO it was 12.1%.

For the molecule `O/N=C/c1c(F)cccc1-c1c[nH]cn1` [DX-03-06, (E) 2-fluoro-6-(1H-imidazol-4-yl)benzaldehyde Oxime], the inhibition at 50 µM is 25.6% at rhIDO1 (at 50 μM) and 12.9% at rhTDO.

As for `COc1ccc(-c2c[nH]cn2)c(/C=N/O)c1` [DX-03-07, (E) 2-(1H-imidazol-4-yl)-5-methoxybenzaldehyde Oxime], the inhibition at 50 µM at rhIDO1 (at 50 μM) is 33.5%; on rhTDO, 15.1%.
